# Test results published in paper PMC10065799, “High-throughput profiling of sequence recognition by tyrosine kinases and SH2 domains using bacterial peptide display” (eLife, 2023).
# How the values were obtained:
# Fes = assay: pTyr-Var library bacterial peptide display kinase screen (enrichment scores); format: biochemical
# EPHB2 kinase domain = assay: as above; format: biochemical, human
# c-Src SH2 domain = c-Src SH2 domain (Homo sapiens, UniProt P12931); assay: pTyr-Var library SH2 domain screen with SH2-dynabeads (enrichment scores); settings: sheet c-Src
# c-Src kinase domain = c-Src kinase domain (Homo sapiens, UniProt P12931); assay: pTyr-Var library bacterial peptide display kinase screen (enrichment scores); format: biochemical;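 on c-Src hit?: Hit requires p below 0.05 and at least twofold variant vs reference change plus filters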
# AncSZ kinase domain = assay: as above; format: biochemical;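 on AncSZ hit?: Hit requires p below 0.05 and at least twofold variant vs reference change plus filters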
# Fer kinase domain = assay: as above; format: biochemical, mouse;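 on Fer hit?: Hit requires p below 0.05 and at least twofold variant vs reference change plus filters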
# FGFR1 kinase domain = assay: as above; format: biochemical, human
# Jak2 = assay: as above; format: biochemical, human
# FGFR3 kinase domain = assay: as above; format: biochemical, human
# SHP2 C-SH2 domain = assay: pTyr-Var library SH2 domain screen with SH2-dynabeads (enrichment scores)
# c-Abl kinase domain = target: T1, c-Abl kinase domain (Mus musculus, UniProt P00520); assay: pTyr-Var library bacterial peptide display kinase screen (enrichment scores); format: biochemical;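 on c-Abl hit?: Hit requires p below 0.05 and at least twofold variant vs reference change plus filters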
# T1 sequence (P00520 242-493 limits assumed): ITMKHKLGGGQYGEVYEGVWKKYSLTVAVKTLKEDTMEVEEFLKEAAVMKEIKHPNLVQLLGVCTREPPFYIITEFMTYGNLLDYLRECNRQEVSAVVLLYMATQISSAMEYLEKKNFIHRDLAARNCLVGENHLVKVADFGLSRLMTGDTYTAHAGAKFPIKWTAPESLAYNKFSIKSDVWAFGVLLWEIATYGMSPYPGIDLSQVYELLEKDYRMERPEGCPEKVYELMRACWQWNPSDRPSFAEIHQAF
# Hck kinase domain = assay: as above; format: biochemical, human
# EPHB1 kinase domain = assay: as above; format: biochemical, human
# MERTK kinase domain = assay: as above; format: biochemical, human
# Fyn kinase domain = assay: as above; format: biochemical, human
# Grb2 SH2 domain = assay: pTyr-Var library SH2 domain screen with SH2-dynabeads (enrichment scores)
# [1] = test system: 4G10 Platinum pan-phosphotyrosine antibody; assay: Phosphorylated pTyr-Var library selection with biotinylated pan-phosphotyrosine antibody; format: binding, mouse; settings: enrichment score, sheet SH2-vs-peptide
# Experimental: After the desired time of library phosphorylation, kinase activity was quenched with 25 mM EDTA and the cells were washed with PBS containing 0.2% BSA. Kinase-treated cells were then labeled with a 1:1000 dilution of biotinylated 4G10 Platinum anti-phosphotyrosine antibody (Millipore) for an hour on ice and washed with PBS containing 0.1% BSA and 2 mM EDTA (isolation buffer). The cells were finally resuspended in PBS containing 0.1% BSA. The phosphorylated, antibody-labeled cells were then mixed with magnetic beads from Dynabeads FlowComp Flexi kit (Invitrogen), at a ratio of 37.5 μL of washed beads per 50 μL of cell suspension, diluted into 450 μL of isolation buffer. The suspension was rotated at 4 °C for 30 minutes, then 375 μL of isolation buffer was added and the beads were separated from the bulk solution on a magnetic rack. The beads were washed once with 1 mL of isolation buffer, and then the supertantant were removed by aspiration. […] The bead/lysate mixture was centrifuged to pellet the beads and the mixture was stored at -20 °C.
# [2] = variant versus reference peptide
# [3] = mean of log2(variant) minus mean of log2(reference)
# [4] = mean of log2 enrichment of variant peptide, n = 4
# [5] = pTyr-Var library, variant peptide enrichment, mean of n = 4
# [6] = mean of log2 of enrichment over R1-R4
# [7] = pTyr-Var library, enrichment score, replicate 1
# [8] = pTyr-Var library, enrichment score, replicate 3
# [9] = pTyr-Var library, enrichment score, replicate 4
# [10] = variant versus reference peptide, significant hit TRUE/FALSE
# [11] = mean of log2 enrichment of variant peptide, n = 5
# [12] = pTyr-Var library, variant peptide enrichment, mean of n = 5
sequence,measurement,setting,value
ATVQNYLPKCI [A2M_Y817_L815Q],Fes mean of log2(enrichment),Fes; mean of log2 of enrichment over R1-R6,-0.2803
same,Fes difference (mean log2 variant - mean log2 reference),Fes; [2],-0.2401
same,difference,EPHB2 kinase domain; [3],-0.2469
same,mean of log2(variant),EPHB2 kinase domain; [4],-1.144
same,var. mean,EPHB2 kinase domain; [5],0.4818
same,difference,c-Src SH2 domain; [3],-0.03544
same,mean of log2(variant),"c-Src SH2 domain; mean of log2 enrichment of variant peptide, R1-R3",-1.014
same,var. mean,"c-Src SH2 domain; variant peptide, mean of R1-R3",0.4965
same,c-Src mean of log2(enrichment),c-Src kinase domain; [6],-1.474
same,c-Src enrich. R1,c-Src kinase domain; [7],0.3685
same,c-Src enrich. R3,c-Src kinase domain; [8],0.3322
same,c-Src enrich. R4,c-Src kinase domain; [9],0.416
same,c-Src difference (mean log2 variant - mean log2 reference),c-Src kinase domain; [2],-0.08063
same,c-Src hit?,c-Src kinase domain; [10],FALSE
same,AncSZ mean of log2(enrichment),AncSZ kinase domain; mean of log2 of enrichment over R1-R5,-0.7038
same,AncSZ enrich. R1,AncSZ kinase domain; [7],0.6587
same,AncSZ enrich. R3,AncSZ kinase domain; [8],0.7943
same,AncSZ enrich. R4,AncSZ kinase domain; [9],0.5045
same,AncSZ enrich. R5,"AncSZ kinase domain; pTyr-Var library, enrichment score, replicate 5",0.4741
same,AncSZ difference (mean log2 variant - mean log2 reference),AncSZ kinase domain; [2],-0.2377
same,AncSZ hit?,AncSZ kinase domain; [10],FALSE
same,Fer mean of log2(enrichment),Fer kinase domain; [6],-1.311
same,Fer enrich. R1,Fer kinase domain; [7],0.4446
same,Fer enrich. R3,Fer kinase domain; [8],0.4557
same,Fer enrich. R4,Fer kinase domain; [9],0.3278
same,Fer difference (mean log2 variant - mean log2 reference),Fer kinase domain; [2],-0.03599
same,Fer hit?,Fer kinase domain; [10],FALSE
same,difference,FGFR1 kinase domain; [3],-0.151
same,mean of log2(variant),FGFR1 kinase domain; [11],-1.149
same,var. mean,FGFR1 kinase domain; [12],0.4624
same,Jak2 mean of log2(enrichment),Jak2; mean of log2 of enrichment over R1-R3,-0.5861
same,Jak2 enrich. R1,Jak2; [7],0.5921
same,Jak2 enrich. R3,Jak2; [8],0.5314
same,Jak2 difference (mean log2 variant - mean log2 reference),Jak2; [2],-0.3549
same,Jak2 hit?,Jak2; [10],FALSE
same,difference,FGFR3 kinase domain; [3],-0.3951
same,mean of log2(variant),FGFR3 kinase domain; [11],-1.056
same,var. mean,FGFR3 kinase domain; [12],0.4887
same,difference,"SHP2 C-SH2 domain; SHP2-C SH2, mean of log2(variant) minus mean of log2(reference)",-0.37
same,mean of log2(variant),"SHP2 C-SH2 domain; SHP2-C SH2, mean of log2 enrichment of variant, R1-R3",-0.8263
same,hit?,"SHP2 C-SH2 domain; SHP2-C SH2, variant versus reference significant hit call",FALSE
same,var. mean,"SHP2 C-SH2 domain; variant peptide enrichment score, SHP2-C SH2, mean of R1-R3",0.5806
same,c-Abl mean of log2(enrichment),c-Abl kinase domain; [6],-0.576
same,c-Abl enrich. R1,c-Abl kinase domain; [7],0.4837
same,c-Abl enrich. R3,c-Abl kinase domain; [8],0.713
same,c-Abl enrich. R4,c-Abl kinase domain; [9],0.6552
same,c-Abl hit?,c-Abl kinase domain; [10],FALSE
same,Hck mean of log2(enrichment),"Hck kinase domain; mean of log2(variant) / mean of log2(reference), R1-R4",0.3462
same,Hck enrich. R1,Hck kinase domain; [7],0.3734
same,Hck enrich. R3,Hck kinase domain; [8],0.3895
same,Hck enrich. R4,Hck kinase domain; [9],0.2207
same,Hck difference (variant - reference),Hck kinase domain; [2],-0.2528
same,Hck hit?,Hck kinase domain; [10],FALSE
same,difference,EPHB1 kinase domain; [3],-0.7634
same,mean of log2(variant),EPHB1 kinase domain; [4],-1.369
same,var. mean,EPHB1 kinase domain; [5],0.3903
same,difference,MERTK kinase domain; [3],-0.01109
same,mean of log2(variant),MERTK kinase domain; [4],-1.438
same,var. mean,MERTK kinase domain; [5],0.3721
same,Fyn mean of log2(enrichment),Fyn kinase domain; [6],-1.466
same,Fyn enrich. R1,Fyn kinase domain; [7],0.4872
same,Fyn enrich. R3,Fyn kinase domain; [8],0.3635
same,Fyn enrich. R4,Fyn kinase domain; [9],0.2869
same,Fyn difference (mean log2 variant - mean log2 reference),Fyn kinase domain; [2],-0.247
same,Fyn hit?,Fyn kinase domain; [10],FALSE
same,difference,"Grb2 SH2 domain; Grb2 SH2, mean of log2(variant) minus mean of log2(reference)",-0.167
same,mean of log2(variant),"Grb2 SH2 domain; Grb2 SH2, mean of log2 enrichment of variant, R1-R3",-0.3239
same,hit?,"Grb2 SH2 domain; Grb2 SH2, variant versus reference significant hit call",FALSE
same,var. mean,"Grb2 SH2 domain; variant peptide enrichment score, Grb2 SH2, mean of R1-R3",0.8266
same,4G10 (mean),[1],0.5753
